Earlier results in patent publication US20170210704A1, “DEUTERO-PHENFORMIN DERIVATIVES” (Enlibrium Inc, priority 2016, published 2017).

What was measured:
[1] = patients treated for type 2 diabetes
cytochrome P450 2D6 = conditions: 2D6 polymorphisms in humans; essentially no metabolism in poor metabolizers

risk of lactic acidosis [1]	metabolism in ultrarapid metabolizers relative to poor metabolizers (cytochrome P450 2D6)	Structure (SMILES)
0.6 events per 1,000 patient years	200 fold	[H]/N=C(/N)N/C(=N/[H])NCCc1ccccc1 [phenformin, Phenformin]
0.1 events per 1,000 patient years		CN(C)C(=N)N=C(N)N [metformin, Metformin]
